The source of these data is patent publication US6444454B1, “Method for increasing the gene expression of saccharose synthase” (Forschungszentrum Julich GmbH, priority 1997, dated 2002).

Type in all cases: biochemical
Experiment [1] addresses T1, Saccharose Synthase (Solanum tuberosum, UniProt P10691).
T1 construct: made in house; host or cells: Saccharomyces cerevisiae strain 22574d, plasmid pDRSuSy (pDR195, proton-ATPase promoter)
Description: acceptance of different NDP's in saccharose splitting. The settings on record: NDP 1.6 mM, saccharose 500 mM, 0.035 U enzyme, pH 7.6, 30° C. As for the experimental part: Initially the acceptance of the recombinant saccharose synthase for different NDP's in saccharose splitting was investigated. The reaction conditions was as follows: [table] The reactions with different NDP's were carried out at a temperature of 30° C.

The target in experiment [2] is T1, Saccharose Synthase. The experiment can be described thus: Michaelis-Menten-Kinetics of saccharose splitting with UDP. The settings on record: UDP 1.6 mM, 14 mU enzyme, pH 7.6, 30° C., 10 minutes. As for the experimental part:
In addition, the Michaelis-Menten-Kinetics of the saccharose splitting with the recombinant saccharose synthase with UDP as a function of saccharose was determined.
The reaction condition for this were as follows:
The reactions were carried out at a temperature of 30° C.; the reaction time amounted in each case to 10 minutes.
In FIG. 5, the Michaelis-Menten-Kinetics of saccharose synthase as a function of saccharose concentration is shown. […] The concentrations of more than 600 mM saccharose substrate excess limiting sets in.

In experiment [3] the target is T1, Saccharose Synthase. Description: splitting of disaccharides with UDP. The settings on record: disaccharide 250 mM, UDP 2 mM, 24 hours at 30° C. As for the experimental part: For the synthase of UDP-2-Desoxyglucose and UDP-N-Acetylglucoseamine, the following reaction composition is used. [table] The reaction mixture is incubated for 24 hours at 30° C. and the reaction stopped at 95° over a period of 5 minutes.

T1 sequence (P10691 whole entry): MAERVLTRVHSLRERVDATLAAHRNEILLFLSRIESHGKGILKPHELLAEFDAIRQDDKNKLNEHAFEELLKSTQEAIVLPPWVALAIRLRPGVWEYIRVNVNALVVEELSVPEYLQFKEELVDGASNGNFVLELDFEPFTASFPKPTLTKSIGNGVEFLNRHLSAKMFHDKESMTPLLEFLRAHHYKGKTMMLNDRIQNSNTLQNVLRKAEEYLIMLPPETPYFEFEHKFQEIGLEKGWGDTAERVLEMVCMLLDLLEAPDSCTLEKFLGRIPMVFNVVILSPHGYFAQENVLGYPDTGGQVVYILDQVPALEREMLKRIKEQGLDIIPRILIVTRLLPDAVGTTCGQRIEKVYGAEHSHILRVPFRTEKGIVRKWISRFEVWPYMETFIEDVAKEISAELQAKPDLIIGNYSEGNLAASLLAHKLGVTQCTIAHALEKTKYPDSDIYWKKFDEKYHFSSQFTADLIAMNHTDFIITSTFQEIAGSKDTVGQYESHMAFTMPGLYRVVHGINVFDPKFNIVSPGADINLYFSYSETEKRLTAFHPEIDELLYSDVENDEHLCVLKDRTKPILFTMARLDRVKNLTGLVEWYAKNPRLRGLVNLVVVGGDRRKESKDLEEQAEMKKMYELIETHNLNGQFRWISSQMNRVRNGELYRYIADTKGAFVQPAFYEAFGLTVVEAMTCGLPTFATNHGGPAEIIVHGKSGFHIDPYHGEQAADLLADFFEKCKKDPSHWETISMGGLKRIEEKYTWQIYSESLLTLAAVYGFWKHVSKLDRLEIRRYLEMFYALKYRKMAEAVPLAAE

`O=c1ccn([C@@H]2O[C@H](COP(=O)(O)OP(=O)(O)O)[C@@H](O)[C@H]2O)c(=O)[nH]1` [UDP]: the “acceptance of NDP's in saccharose splitting as a function of reaction time (sequence)” value in experiment [1] is “UDP>ADP=TDP>CDP>GDP”.
Same read-out and setting: in the case of `Nc1ncnc2c1ncn2[C@@H]1O[C@H](COP(=O)(O)OP(=O)(O)O)[C@@H](O)[C@H]1O` [ADP] it was “UDP>ADP=TDP>CDP>GDP”; in that of `Nc1nc2c(ncn2[C@@H]2O[C@H](COP(=O)(O)OP(=O)(O)O)[C@@H](O)[C@H]2O)c(=O)[nH]1` [GDP], “UDP>ADP=TDP>CDP>GDP”; in that of `Cc1cn([C@H]2C[C@H](O)[C@@H](COP(=O)(O)OP(=O)(O)O)O2)c(=O)[nH]c1=O` [TDP], “UDP>ADP=TDP>CDP>GDP”.
Take `OC[C@H]1O[C@@](CO)(O[C@H]2O[C@H](CO)[C@@H](O)[C@H](O)[C@H]2O)[C@@H](O)[C@@H]1O` [saccharose]: in experiment [2], the Km amounted to 66 mM and the “saccharose concentration at which substrate excess limiting sets in” value is listed as “more than 600 mM”.
Consider N-acetyl saccharosamine, for which the disaccharide converted in experiment [3] (1.25 U of the enzyme) amounted to 12.4%.
As for `Nc1ccn([C@@H]2O[C@H](COP(=O)(O)OP(=O)(O)O)[C@@H](O)[C@H]2O)c(=O)n1` [CDP], the “acceptance of NDP's in saccharose splitting as a function of reaction time (sequence)” value in experiment [1] is “UDP>ADP=TDP>CDP>GDP”.
Regarding `OC[C@H]1OC(CO)(O[C@@H]2C[C@@H](O)[C@H](O)[C@@H](CO)O2)[C@@H](O)[C@@H]1O` (stereo partly drawn) [two desoxy saccharose, 2-desoxysaccharose], in experiment [3] (0.11 U saccharose synthase), the disaccharide split off is given as 5.9%.

For orientation: Km means the substrate concentration at which the rate is half of its maximum.
